GFP fluorescence (kMESF) and EC50 data for 20 molecules are collected here from PubChem BioAssay AID504470 (NMMLSC, 2011).

A short description of experiment [1]: TOR pathway RPL19A-GFP reporter modulators – cell-based, KU SAR set 2, kMESF flow cytometry, multiplex, SAR follow-up (AID 504470). The note with it: S. cerevisiae RPL19A-GFP strain, flow cytometry fluorescence, 3 h. A general note: In flow cytometry, cells or beads pass a laser one at a time.
For experiment [2], the system named is S. cerevisiae RPL19A-GFP strain, flow cytometry fluorescence, 3 h. Described as above.

The source made the active and inactive calls.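 Rule for the calls: active = EC50, the half-effect concentration on GFP expression, at most 33 µM; inactive = the rest.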

`CNc1nc(N)c([N+](=O)[O-])c(Nc2cccc(Oc3ccccc3)c2)n1`: in experiment [1] (at 100 µM (top of the series)), the GFP fluorescence (kMESF) was 23% (inactive).
Still for that read-out and setting: with `CNc1nc(N)c([N+](=O)[O-])c(Nc2ccccc2F)n1` the figure was 24.8% (inactive).
Still for that read-out and setting: with `CNc1nc(NC2CCCCC2)c([N+](=O)[O-])c(N2CCOCC2)n1` the figure was 21.9% (inactive).
With `CNc1nc(N)c([N+](=O)[O-])c(Nc2cccc(OC)c2)n1`, the GFP fluorescence (kMESF) in experiment [1] (at 100 µM (top of the series)) is 22.9% (inactive).
Take `Cc1cc(Nc2cc(Nc3ccccc3)nc(NCc3ccccc3)n2)n[nH]1`: the GFP fluorescence (kMESF) in experiment [1] (at 300 µM (top of the series)) was 30% (inactive).
Usually EC50 stands for the midpoint of the concentration-response curve. For the molecule `CNc1nc(N)cc(Nc2cccc(Cl)c2)n1`, in experiment [2], the EC50 was 69.1 µM (inactive).
Consider `CCNc1nc(NC2CCCCC2)c([N+](=O)[O-])c(N2CCOCC2)n1`, for which the EC50 in experiment [2] is 70.5 µM (inactive).
As for `CCOC(=O)c1c(N)nc(NC)nc1Nc1cccc(F)c1`, in experiment [1] (at 300 µM (top of the series)), the GFP fluorescence (kMESF) is 29.8% (inactive).
Turning to `COc1cccc(-c2cc(Nc3cc(C)[nH]n3)nc(NCc3ccccc3)n2)c1`, the GFP fluorescence (kMESF) in experiment [1] (at 300 µM (top of the series)) is 32.4% (inactive).
In the case of `CNc1nc(N)c([N+](=O)[O-])c(Nc2ccccc2Br)n1`, in experiment [1] (at 100 µM (top of the series)), the GFP fluorescence (kMESF) was 23.4% (inactive).
Consider `CNc1nc(N)cc(Nc2ccccc2F)n1`, for which the GFP fluorescence (kMESF) in experiment [1] (at 300 µM (top of the series)) is 32% (inactive).
Still for that read-out and setting: with `Cc1cc(Nc2cc(-c3ccccc3)nc(NCc3ccccc3)n2)n[nH]1` the figure was 31.4% (inactive).
With `COc1ccccc1-c1cc(Nc2cc(C)[nH]n2)nc(NCc2ccccc2)n1`, the GFP fluorescence (kMESF) in experiment [1] (at 300 µM (top of the series)) is 30% (inactive).
Turning to `CNc1nc(N)c(C(=O)c2ccc(C)c(C)c2)c(Nc2cccc(Cl)c2)n1`, in experiment [2], the EC50 was 125 µM (inactive).
As for `CNc1nc(N)cc(Oc2cccc(Cl)c2)n1`, the GFP fluorescence (kMESF) in experiment [1] (at 300 µM (top of the series)) is 32.2% (inactive).
Take `CNc1nc(N)c([N+](=O)[O-])c(Nc2cccc(Br)c2)n1`: the GFP fluorescence (kMESF) in experiment [1] (at 100 µM (top of the series)) is 24% (inactive).
For the molecule `O=[N+]([O-])c1c(NC2CCCCC2)nc(NCc2ccccc2)nc1N1CCOCC1`, the GFP fluorescence (kMESF) in experiment [1] (at 300 µM (top of the series)) is 29.5% (inactive).
On to `CNc1nc(NC)c([N+](=O)[O-])c(Nc2cccc(Cl)c2)n1`, for which the GFP fluorescence (kMESF) in experiment [1] (at 100 µM (top of the series)) is 23.3% (inactive).
The same measure, in the same setting: with `CCNc1nc(N)c([N+](=O)[O-])c(Nc2cccc(Cl)c2)n1` the figure was 18.9% (inactive).
`COC(=O)c1cccc(-c2cc(Nc3cc(C)[nH]n3)nc(NCc3ccccc3)n2)c1`: the GFP fluorescence (kMESF) in experiment [1] (at 300 µM (top of the series)) was 32.9% (inactive).
